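GI50 marks 50% less growth. The concentration for full growth arrest is given as TGI.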
What was measured:
Experiment in all cases: NCI-60 cell line screen, 384-well format
MDA-MB-435 melanoma = test system: MDA-MB-435 melanoma
OVCAR-8 ovarian = test system: OVCAR-8 ovarian
SNB-75 CNS = test system: SNB-75 CNS
OVCAR-3 ovarian = test system: OVCAR-3 ovarian
UACC-257 melanoma = test system: UACC-257 melanoma
NCI-H226 lung = test system: NCI-H226 lung
PC-3 prostate = test system: PC-3 prostate
NCI-H23 lung = test system: NCI-H23 lung
NCI-H322M lung = test system: NCI-H322M lung
HOP-62 NSCLC = test system: HOP-62 NSCLC
SF-295 CNS = test system: SF-295 CNS
DU-145 prostate = test system: DU-145 prostate
SW-620 colon = test system: SW-620 colon
HCC-2998 colon = test system: HCC-2998 colon
SF-539 CNS = test system: SF-539 CNS
EKVX NSCLC = test system: EKVX NSCLC
LOX IMVI melanoma = test system: LOX IMVI melanoma
RPMI-8226 leukemia = test system: RPMI-8226 leukemia
NCI-H522 lung = test system: NCI-H522 lung
SNB-19 CNS = test system: SNB-19 CNS
MDA-MB-231 breast = test system: MDA-MB-231 breast
SR leukemia = test system: SR leukemia
UO-31 renal = test system: UO-31 renal
NCI-H460 NSCLC = test system: NCI-H460 NSCLC
SK-MEL-28 melanoma = test system: SK-MEL-28 melanoma
HCT-15 colon = test system: HCT-15 colon
MALME-3M melanoma = test system: MALME-3M melanoma
COLO 205 colon = test system: COLO 205 colon
MDA-MB-468 breast = test system: MDA-MB-468 breast
NCI/ADR-RES ovarian = test system: NCI/ADR-RES ovarian
HT29 colon = test system: HT29 colon
T-47D breast = test system: T-47D breast
A549 NSCLC = test system: A549 NSCLC
SK-OV-3 ovarian = test system: SK-OV-3 ovarian
RXF 393 renal = test system: RXF 393 renal
U251 glioblastoma = test system: U251 glioblastoma
HL-60(TB) leukemia = test system: HL-60(TB) leukemia
SF-268 CNS = test system: SF-268 CNS
HOP-92 NSCLC = test system: HOP-92 NSCLC
786-0 renal = test system: 786-0 renal
HS 578T breast = test system: HS 578T breast
SK-MEL-5 melanoma = test system: SK-MEL-5 melanoma
A498 renal = test system: A498 renal
ACHN renal = test system: ACHN renal
K-562 leukemia = test system: K-562 leukemia
CCRF-CEM leukemia = test system: CCRF-CEM leukemia
MOLT-4 leukemia = test system: MOLT-4 leukemia
OVCAR-4 ovarian = test system: OVCAR-4 ovarian
OVCAR-5 ovarian = test system: OVCAR-5 ovarian
BT-549 breast = test system: BT-549 breast
M14 melanoma = test system: M14 melanoma
SN12C renal = test system: SN12C renal

CC(C)[C@]12O[C@H]1[C@@H]1O[C@]13[C@]1(O[C@H]1C[C@H]1C4=C(CC[C@@]13C)C(=O)OC4)[C@@H]2O
GI50 (MDA-MB-435 melanoma): < 10 nM
TGI (MDA-MB-435 melanoma): 18.1 nM
GI50 (OVCAR-8 ovarian): 10.6 nM
TGI (OVCAR-8 ovarian): 36.6 nM
GI50 (SNB-75 CNS): < 10 nM
TGI (SNB-75 CNS): 21.9 nM
GI50 (OVCAR-3 ovarian): < 10 nM
TGI (OVCAR-3 ovarian): 12.4 nM
GI50 (UACC-257 melanoma): < 10 nM
TGI (UACC-257 melanoma): 21.2 nM
GI50 (NCI-H226 lung): < 10 nM
TGI (NCI-H226 lung): 12.3 nM
GI50 (PC-3 prostate): 12.3 nM
TGI (PC-3 prostate): 52 nM
GI50 (NCI-H23 lung): < 10 nM
TGI (NCI-H23 lung): < 10 nM
GI50 (NCI-H322M lung): 10.8 nM
TGI (NCI-H322M lung): 31.8 nM
GI50 (HOP-62 NSCLC): < 10 nM
TGI (HOP-62 NSCLC): < 10 nM
GI50 (SF-295 CNS): < 10 nM
TGI (SF-295 CNS): 21.3 nM
GI50 (DU-145 prostate): < 10 nM
TGI (DU-145 prostate): < 10 nM
GI50 (SW-620 colon): < 10 nM
TGI (SW-620 colon): 33.3 nM
GI50 (HCC-2998 colon): 13.7 nM
TGI (HCC-2998 colon): 31.3 nM
GI50 (SF-539 CNS): < 10 nM
TGI (SF-539 CNS): 15.4 nM
GI50 (EKVX NSCLC): 10 nM
TGI (EKVX NSCLC): 30.2 nM
GI50 (LOX IMVI melanoma): < 10 nM
TGI (LOX IMVI melanoma): < 10 nM
GI50 (RPMI-8226 leukemia): < 10 nM
TGI (RPMI-8226 leukemia): < 10 nM
GI50 (NCI-H522 lung): < 10 nM
TGI (NCI-H522 lung): < 10 nM
GI50 (SNB-19 CNS): 21.1 nM
TGI (SNB-19 CNS): > 100000 nM
GI50 (MDA-MB-231 breast): < 10 nM
TGI (MDA-MB-231 breast): 21.7 nM
GI50 (SR leukemia): < 10 nM
TGI (SR leukemia): < 10 nM
GI50 (UO-31 renal): 11.4 nM
TGI (UO-31 renal): 51.3 nM
GI50 (NCI-H460 NSCLC): < 10 nM
TGI (NCI-H460 NSCLC): < 10 nM
GI50 (SK-MEL-28 melanoma): < 10 nM
TGI (SK-MEL-28 melanoma): < 10 nM
GI50 (HCT-15 colon): < 10 nM
TGI (HCT-15 colon): 31.6 nM
GI50 (MALME-3M melanoma): < 10 nM
TGI (MALME-3M melanoma): 21 nM
GI50 (COLO 205 colon): < 10 nM
TGI (COLO 205 colon): 23.3 nM
GI50 (MDA-MB-468 breast): < 10 nM
TGI (MDA-MB-468 breast): 20.8 nM
GI50 (NCI/ADR-RES ovarian): < 10 nM
TGI (NCI/ADR-RES ovarian): 26.1 nM
GI50 (HT29 colon): 11.1 nM
TGI (HT29 colon): > 100000 nM
GI50 (T-47D breast): < 10 nM
TGI (T-47D breast): 37 nM
GI50 (A549 NSCLC): 15 nM
TGI (A549 NSCLC): > 100000 nM
GI50 (SK-OV-3 ovarian): < 10 nM
TGI (SK-OV-3 ovarian): 36.5 nM
GI50 (RXF 393 renal): < 10 nM
TGI (RXF 393 renal): < 10 nM
GI50 (U251 glioblastoma): 11.3 nM
TGI (U251 glioblastoma): 66 nM
GI50 (HL-60(TB) leukemia): < 10 nM
TGI (HL-60(TB) leukemia): < 10 nM
GI50 (SF-268 CNS): 10.2 nM
TGI (SF-268 CNS): 27.7 nM
GI50 (HOP-92 NSCLC): 12.3 nM
TGI (HOP-92 NSCLC): 47.7 nM
GI50 ([…]-0 renal): < 10 nM
TGI (786-0 renal): 17.7 nM
GI50 (HS 578T breast): < 10 nM
TGI (HS 578T breast): 18.4 nM
GI50 (SK-MEL-5 melanoma): < 10 nM
TGI (SK-MEL-5 melanoma): 12.2 nM
GI50 (A498 renal): < 10 nM
TGI (A498 renal): 27.5 nM
GI50 (ACHN renal): < 10 nM
TGI (ACHN renal): 32.4 nM
GI50 (K-562 leukemia): < 10 nM
TGI (K-562 leukemia): 18.8 nM
GI50 (CCRF-CEM leukemia): < 10 nM
TGI (CCRF-CEM leukemia): 15.7 nM
GI50 (MOLT-4 leukemia): < 10 nM
TGI (MOLT-4 leukemia): < 10 nM
GI50 (OVCAR-4 ovarian): < 10 nM
TGI (OVCAR-4 ovarian): < 10 nM
GI50 (OVCAR-5 ovarian): < 10 nM
TGI (OVCAR-5 ovarian): > 100000 nM
GI50 (BT-549 breast): < 10 nM
TGI (BT-549 breast): < 10 nM
GI50 (M14 melanoma): 11.7 nM
TGI (M14 melanoma): 24.1 nM
GI50 (SN12C renal): < 10 nM
TGI (SN12C renal): 12.4 nM
